Several values for one entry are separate records, joined by “and”; a condition that tells them apart may be missing. Equal entries are not always repeated. Where two headings read alike, the source gives them in different places.
Experiments:
Assay in all cases: Chemosensitivity, 96 h continuous exposure, MTT assay
Format in all cases: cell-based, human
ARPE-19 non-cancer cells = conditions: for Relative potency (+ anion to no anion), Ratio + anion:no anion: ratio of IC50, ARPE-19
Outline: (§1)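 Cells were seeded overnight at 37 °C (2 × 10^3/well; GBM1 at 3 × 10^3/well on poly-L-ornithine/laminin in Neurobasal with hFGF/rhEGF), then exposed to compound concentration ranges for 96 h. Viability was read by MTT (4 h, formazan in DMSO, A540) and IC50 taken from dose–response curves.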

BxPC3 = conditions: for IC50 / Selectivity indices relative to ARPE-19, Ratio + anion:no anion / Selectivity indices relative to MCF10A, Ratio + anion:no anion: BXPC3; for Selectivity index (ARPE19): IC50 ARPE-19 / IC50 BXPC3; for Selectivity index (MCF10A): IC50 MCF10A / IC50 BXPC3; for Relative potency (+ anion to no anion), Ratio + anion:no anion: ratio of IC50, BXPC3; for Selectivity indices relative to ARPE-19, Ratio + anion:no anion: ratio of SI (ARPE-19); for Selectivity indices relative to MCF10A, Ratio + anion:no anion: ratio of SI (MCF 10A)
Outline: as §1

H460 = conditions: for IC50 / Selectivity indices relative to ARPE-19, Ratio + anion:no anion / Selectivity indices relative to MCF10A, Ratio + anion:no anion: H460; for Selectivity index (ARPE19): IC50 ARPE-19 / IC50 H460; for Selectivity index (MCF10A): IC50 MCF10A / IC50 H460; for Relative potency (+ anion to no anion), Ratio + anion:no anion: ratio of IC50, H460; for Selectivity indices relative to ARPE-19, Ratio + anion:no anion: ratio of SI (ARPE-19); for Selectivity indices relative to MCF10A, Ratio + anion:no anion: ratio of SI (MCF 10A)
Outline: (§2)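 Cells seeded at 2 × 10^3/well (GBM1 3 × 10^3/well) and left overnight at 37 °C, then exposed continuously for 96 h to a range of compound concentrations (final DMSO 0.2%). Viability read by MTT, absorbance at 540 nm; IC50 taken from dose-response curves as concentration reducing cell growth by 50%.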

HT-29 = conditions: for Selectivity index (ARPE19): IC50 ARPE-19 / IC50 HT29; for Selectivity index (MCF10A): IC50 MCF10A / IC50 HT29; for Relative potency (+ anion to no anion), Ratio + anion:no anion: ratio of IC50, HT29; for Selectivity indices relative to ARPE-19, Ratio + anion:no anion: ratio of SI (ARPE-19); for Selectivity indices relative to MCF10A, Ratio + anion:no anion: ratio of SI (MCF 10A)
Outline: as §1

MCF10A non-cancer cells = conditions: for Relative potency (+ anion to no anion), Ratio + anion:no anion: ratio of IC50, MCF10A
Outline: as §1

MiaPaCa2 = conditions: for Selectivity index (ARPE19): IC50 ARPE-19 / IC50 MiaPaCa2; for Selectivity index (MCF10A): IC50 MCF10A / IC50 MiaPaCa2; for IC50 / Selectivity indices relative to ARPE-19, Ratio + anion:no anion / Selectivity indices relative to MCF10A, Ratio + anion:no anion: MiaPaCa2; for Relative potency (+ anion to no anion), Ratio + anion:no anion: ratio of IC50, MiaPaCa2; for Selectivity indices relative to ARPE-19, Ratio + anion:no anion: ratio of SI (ARPE-19); for Selectivity indices relative to MCF10A, Ratio + anion:no anion: ratio of SI (MCF 10A)
Outline: as §1

PSN1 = conditions: for Selectivity index (ARPE19): IC50 ARPE-19 / IC50 PSN1; for Selectivity index (MCF10A): IC50 MCF10A / IC50 PSN1; for IC50 / Selectivity indices relative to ARPE-19, Ratio + anion:no anion / Selectivity indices relative to MCF10A, Ratio + anion:no anion: PSN1; for Relative potency (+ anion to no anion), Ratio + anion:no anion: ratio of IC50, PSN1; for Selectivity indices relative to ARPE-19, Ratio + anion:no anion: ratio of SI (ARPE-19); for Selectivity indices relative to MCF10A, Ratio + anion:no anion: ratio of SI (MCF 10A)
Outline: as §2

[1] = ARPE-19, mean of replicates, read-out: Mean IC50
[2] = ARPE-19, single replicate, read-out: IC50 values for each replicate
[3] = ARPE-19 non-cancer, read-out: Mean IC50 values
[4] = mean of replicates, read-out: Mean IC50
[5] = single replicate, read-out: IC50 values for each replicate
[6] = HT29, mean of replicates, read-out: Mean IC50
[7] = HT29, read-out: Mean IC50 values
[8] = HT-29, single replicate, read-out: IC50 values for each replicate
[9] = MCF10A non-cancer, read-out: Mean IC50 values
[10] = MCF10A, mean of replicates, read-out: Mean IC50
[11] = MCF10A, single replicate, read-out: IC50 values for each replicate

SMILES: O=S(=O)([O-])[O-].[Cu+2].[Cu+2].[Cu+2].c1ccc(-c2csc(NCCN(CCNc3nc(-c4ccccn4)cs3)CCNc3nc(-c4ccccn4)cs3)n2)nc1.c1ccc(-c2csc(NCCN(CCNc3nc(-c4ccccn4)cs3)CCNc3nc(-c4ccccn4)cs3)n2)nc1 [[L2Cu3(SO4)]4+]
- IC50 (ARPE-19 non-cancer cells; [1]): 120000 nM
- IC50 (ARPE-19 non-cancer cells; [2]): 126000 nM and 121000 nM and 113000 nM
- IC50 (ARPE-19 non-cancer cells; [3]): 120000 nM
- Relative potency (+ anion to no anion), Ratio + anion:no anion (ARPE-19 non-cancer cells): 2.29
- IC50 (BxPC3; [4]): 491 nM
- IC50 (BxPC3; read-out: Mean IC50 values): 491 nM
- IC50 (BxPC3; [5]): 544 nM and 586 nM and 260 nM and 478 nM and 588 nM
- Selectivity index (ARPE19) (BxPC3): 245.03
- Selectivity index (MCF10A) (BxPC3): 101.29
- Relative potency (+ anion to no anion), Ratio + anion:no anion (BxPC3): 1.68
- Selectivity indices relative to ARPE-19, Ratio + anion:no anion (BxPC3): 1.364
- Selectivity indices relative to MCF10A, Ratio + anion:no anion (BxPC3): 0.615
- IC50 (H460; [4]): 252 nM
- IC50 (H460; read-out: Mean IC50 values): 252 nM
- IC50 (H460; [5]): 438 nM and 207 nM and 188 nM and 219 nM and 227 nM and 234 nM
- Selectivity index (ARPE19) (H460): 477.42
- Selectivity index (MCF10A) (H460): 197.35
- Relative potency (+ anion to no anion), Ratio + anion:no anion (H460): 0.91
- Selectivity indices relative to ARPE-19, Ratio + anion:no anion (H460): 2.504
- Selectivity indices relative to MCF10A, Ratio + anion:no anion (H460): 1.129
- IC50 (HT-29; [6]): 188 nM
- IC50 (HT-29; [7]): 188 nM
- IC50 (HT-29; [8]): 88 nM and 240 nM and 182 nM
- Selectivity index (ARPE19) (HT-29): 639.95
- Selectivity index (MCF10A) (HT-29): 264.53
- Relative potency (+ anion to no anion), Ratio + anion:no anion (HT-29): 0.88
- Selectivity indices relative to ARPE-19, Ratio + anion:no anion (HT-29; HT29): 2.602
- Selectivity indices relative to MCF10A, Ratio + anion:no anion (HT-29; HT29): 1.173
- IC50 (MCF10A non-cancer cells; [9]): 49700 nM
- IC50 (MCF10A non-cancer cells; [10]): 49700 nM
- IC50 (MCF10A non-cancer cells; [11]): 53200 nM and 42900 nM and 45100 nM and 57700 nM
- Relative potency (+ anion to no anion), Ratio + anion:no anion (MCF10A non-cancer cells): 1.03
- Selectivity index (ARPE19) (MiaPaCa2): 2.28
- Selectivity index (MCF10A) (MiaPaCa2): 0.94
- IC50 (MiaPaCa2; [4]): 52700 nM
- IC50 (MiaPaCa2; read-out: Mean IC50 values): 52700 nM
- IC50 (MiaPaCa2; [5]): 63700 nM and 63600 nM and 47200 nM and 43500 nM and 49700 nM and 48300 nM
- Relative potency (+ anion to no anion), Ratio + anion:no anion (MiaPaCa2): 4.46
- Selectivity indices relative to ARPE-19, Ratio + anion:no anion (MiaPaCa2): 0.512
- Selectivity indices relative to MCF10A, Ratio + anion:no anion (MiaPaCa2): 0.231
- Selectivity index (ARPE19) (PSN1): 246.54
- Selectivity index (MCF10A) (PSN1): 101.91
- IC50 (PSN1; [4]): 488 nM
- IC50 (PSN1; read-out: Mean IC50 values): 488 nM
- IC50 (PSN1; [5]): 449 nM and 779 nM and 235 nM
- Relative potency (+ anion to no anion), Ratio + anion:no anion (PSN1): 0.0756
- Selectivity indices relative to ARPE-19, Ratio + anion:no anion (PSN1): 30.213
- Selectivity indices relative to MCF10A, Ratio + anion:no anion (PSN1): 13.624

SMILES: O=S(=O)(O)O.[Zn+2].[Zn+2].[Zn+2].c1ccc(-c2csc(NCCN(CCNc3nc(-c4ccccn4)cs3)CCNc3nc(-c4ccccn4)cs3)n2)nc1.c1ccc(-c2csc(NCCN(CCNc3nc(-c4ccccn4)cs3)CCNc3nc(-c4ccccn4)cs3)n2)nc1 [[L2Zn3(SO4)]4+]
- IC50 (ARPE-19 non-cancer cells; [1]): 169000 nM
- IC50 (ARPE-19 non-cancer cells; [2]): 182000 nM and 150000 nM and 176000 nM
- IC50 (ARPE-19 non-cancer cells; [3]): 169000 nM
- Relative potency (+ anion to no anion), Ratio + anion:no anion (ARPE-19 non-cancer cells): 1.08
- IC50 (BxPC3; [4]): 599 nM
- IC50 (BxPC3; read-out: Mean IC50 values): 599 nM
- IC50 (BxPC3; [5]): 668 nM and 428 nM and 705 nM and 728 nM and 465 nM
- Selectivity index (ARPE19) (BxPC3): 282.59
- Selectivity index (MCF10A) (BxPC3): 25.42
- Relative potency (+ anion to no anion), Ratio + anion:no anion (BxPC3): 1.87
- Selectivity indices relative to ARPE-19, Ratio + anion:no anion (BxPC3): 0.575
- Selectivity indices relative to MCF10A, Ratio + anion:no anion (BxPC3): 0.050
- IC50 (H460; [4]): 233 nM
- IC50 (H460; read-out: Mean IC50 values): 233 nM
- IC50 (H460; [5]): 189 nM and 262 nM and 250 nM
- Selectivity index (ARPE19) (H460): 726.48
- Selectivity index (MCF10A) (H460): 65.36
- Relative potency (+ anion to no anion), Ratio + anion:no anion (H460): 0.65
- Selectivity indices relative to ARPE-19, Ratio + anion:no anion (H460): 1.663
- Selectivity indices relative to MCF10A, Ratio + anion:no anion (H460): 1.128
- IC50 (HT-29; [6]): 238 nM
- IC50 (HT-29; [7]): 238 nM
- IC50 (HT-29; [8]): 70 nM and 166 nM and 210 nM and 243 nM and 499 nM
- Selectivity index (ARPE19) (HT-29): 711.22
- Selectivity index (MCF10A) (HT-29): 63.98
- Relative potency (+ anion to no anion), Ratio + anion:no anion (HT-29): 1.41
- Selectivity indices relative to ARPE-19, Ratio + anion:no anion (HT-29; HT29): 0.764
- Selectivity indices relative to MCF10A, Ratio + anion:no anion (HT-29; HT29): 0.067
- IC50 (MCF10A non-cancer cells; [9]): 15200 nM
- IC50 (MCF10A non-cancer cells; [10]): 15200 nM
- IC50 (MCF10A non-cancer cells; [11]): 18.5 µM and 11.3 µM (2×) and 19.7 µM
- Relative potency (+ anion to no anion), Ratio + anion:no anion (MCF10A non-cancer cells): 0.09
- Selectivity index (ARPE19) (MiaPaCa2): 3.29
- Selectivity index (MCF10A) (MiaPaCa2): 0.30
- IC50 (MiaPaCa2; [4]): 51500 nM
- IC50 (MiaPaCa2; read-out: Mean IC50 values): 51500 nM
- IC50 (MiaPaCa2; [5]): 52600 nM and 36700 nM and 60800 nM and 55800 nM
- Relative potency (+ anion to no anion), Ratio + anion:no anion (MiaPaCa2): 0.87
- Selectivity indices relative to ARPE-19, Ratio + anion:no anion (MiaPaCa2): 1.236
- Selectivity indices relative to MCF10A, Ratio + anion:no anion (MiaPaCa2): 0.108
- Selectivity index (ARPE19) (PSN1): 748.98
- Selectivity index (MCF10A) (PSN1): 67.38
- IC50 (PSN1; [4]): 226 nM
- IC50 (PSN1; read-out: Mean IC50 values): 226 nM
- IC50 (PSN1; [5]): 217 nM and 199 nM and 261 nM
- activity relative to [L2Zn3(PO4)]3+ or [L2Zn3]6+ (PSN1; PSN1 cell line, anion pre-encapsulated): significantly more active
- Relative potency (+ anion to no anion), Ratio + anion:no anion (PSN1): 0.05
- Selectivity indices relative to ARPE-19, Ratio + anion:no anion (PSN1): 21.164
- Selectivity indices relative to MCF10A, Ratio + anion:no anion (PSN1): 1.852

— paper PMC8222254, “Self-assembly of an anion receptor with metal-dependent kinase inhibition and potent in vitro anti-cancer properties” (Nature Communications, 2021)
